{"source": "patent US20160251367A1", "about": "“SYNTHESIS OF TRITOQUALINE SALTS” (Chrysalis Pharma, priority 2014, published 2016)", "experiment": "physchem", "format": "physicochemical", "from_the_text": "The dissolution tests show a very substantial and surprising increase in tritoqualine.", "note": "Where two headings read alike, the source gives them in different places.", "data": [{"compound": "CCOc1c(N)c2c(c(OCC)c1OCC)C(C1c3c(cc4c(c3OC)OCO4)CCN1C)OC2=O.Cl", "note": "(centres unmarked) [Tritoqualine hydrochloride, tritoqualine hydrochloride]", "values": [{"measurement": "increase of the initial solubility of tritoqualine in water", "value": 500, "unit": "times"}, {"measurement": "solubility", "value": 0.25, "unit": "M/L"}]}, {"compound": "CC(=O)O.CCOc1c(N)c2c(c(OCC)c1OCC)C(C1c3c(cc4c(c3OC)OCO4)CCN1C)OC2=O", "note": "(centres unmarked) [Tritoqualine acetate, tritoqualine acetate]", "values": [{"measurement": "increase of the initial solubility of tritoqualine in water", "value": 1500, "unit": "times"}, {"measurement": "solubility", "value": 0.75, "unit": "M/L"}]}, {"compound": "CCOc1c(N)c2c(c(OCC)c1OCC)C(C1c3c(cc4c(c3OC)OCO4)CCN1C)OC2=O.O=P(O)(O)O", "note": "(centres unmarked) [Tritoqualine phosphate, tritoqualine phosphate]", "values": [{"measurement": "increase of the initial solubility of tritoqualine in water", "value": "31 000 times"}]}, {"compound": "CCOc1c(N)c2c(c(OCC)c1OCC)C(C1c3c(cc4c(c3OC)OCO4)CCN1C)OC2=O", "note": "(racemic) [tritoqualine, 7-Amino-4,5,6-triethoxy-3-(5,6,7,8-tetrahydro-4-methoxy-6-methyl-1,3-dioxolo[4,5-g]isoquinolin-5-yl) phthalide]", "values": [{"measurement": "solubility", "setting": "water", "value": 500, "unit": "µM"}]}, {"compound": "CCOc1c(N)c2c(c(OCC)c1OCC)C(C1c3c(cc4c(c3OC)OCO4)CCN1C)OC2=O.O=C(O)C=CC(=O)O", "note": "(centres unmarked) [Tritoqualine fumarate, tritoqualine fumarate]", "values": [{"measurement": "increase of the initial solubility of tritoqualine in water", "value": "15 000 times"}]}, {"compound": "CCOc1c(N)c2c(c(OCC)c1OCC)C(C1c3c(cc4c(c3OC)OCO4)CCN1C)OC2=O.CS(=O)(=O)O", "note": "(centres unmarked) [Tritoqualine methylsulfonate, tritoqualine methylsulfonate]", "values": [{"measurement": "increase of the initial solubility of tritoqualine in water", "value": "50 000 times"}]}, {"compound": "tritoqualine sulfate", "values": [{"measurement": "increase of the initial solubility of tritoqualine in water", "value": 2500, "unit": "times"}, {"measurement": "solubility", "value": 1.25, "unit": "M/L"}]}, {"compound": "CC1(C)C2CCC1(CS(=O)(=O)O)C(=O)C2.CCOc1c(N)c2c(c(OCC)c1OCC)C(C1c3c(cc4c(c3OC)OCO4)CCN1C)OC2=O", "note": "(centres unmarked) [Tritoqualine camphorsulfonate, tritoqualine camphorsulfonate]", "values": [{"measurement": "increase of the initial solubility of tritoqualine in water", "value": "11 000 times"}]}]}
